Measurements taken from US6699676B1, “Uses of ouabain and ouabain-like molecules in apoptosis related pathologies” (Corporation du Centre de Recherche du Centre, Hospitalier …, priority 1999, dated 2004).
Marks after values point to notes of the source that are not given here.

Columns and labels:
[1] = tested on: VSMC; experiment: LDH release (necrosis marker) in VSMC; type: cell-based, rat
Procedure: VSMC growing in 6-well (LDH release) or 24-well (chromatin cleavage assay) plates were preincubated for 3 hours with or without 1 mM ouabain. In part of the experiments, the cells were subjected to 30 min incubation at 46° C. (heat-treated cells, line 3). They were then incubated in the absence or presence of 10% calf serum during additional 8 hr and chromatin cleavage and LDH release were measured as indicated in Experimental Procedures and with a spectrophotometric kit (Sigma), respectively. Means±S.E. from experiments performed in triplicate (LDH release) or quadruplicate (chromatin cleavage) are given. ★, ★★ p<0.05 and 0.001 compared to ouabain-untreated cells. #p<0.001 compared to serum-supplied, heat-untreated cells.

[2] = tested on: VSMC; experiment: DNA synthesis, serum-induced [3H]-thymidine incorporation in VSMC; type: cell-based, rat
Procedure: As with ouabain, VSMC apoptosis was blocked by inhibition of the Na^+,K^+ pump in K^+-depleted medium (Table 1). […] DNA synthesis in VSMC, measured as serum-induced [^3H]-thymidine incorporation, was also insensitive to 5 hours preincubation with ouabain and was decreased by ˜60% only after 48 hours of the Na^+, K^+ pump inhibition (data not presented).

[3] = tested on: VSMC-E1A; experiment: Cell morphology by phase contrast microscopy in VSMC-E1A; type: cell-based, rat; details: 1 mM ouabain pretreatment, 6 hours serum-deprived medium
Procedure: (§1) FIG. 3. Effect of ouabain on morphology (A) and DNA laddering (B and C) in VSMC-E1A. In experiments with ouabain, cells were pretreated with 1 mM of this compound 1 hour before 6 hours exposure to serum-free medium. A. Cell morphology was evaluated by phase contrast microscopy without preliminary fixation. a, c) DMEM containing 10% calf serum; b, d) serum-free DMEM; a, b) without ouabain; c, d) in the presence of ouabain. Micro graphs were prepared using a Nikon phase contrast microscope at ×100 magnification. Apoptotic cells are shown by arrows. B. DNA laddering (left part of the figure) was analyzed with a PhosphorImager, and relative content of low molecular weight DNA fragments (1,500−125 bp−right part of the figure) in cells incubated with 10% calf serum (CS) in the absence of ouabain was taken as 100%. Means±S.E. obtained in 2 experiments performed in triplicate are shown.

[4] = tested on: VSMC-E1A; experiment: 3'-end DNA labeling / DNA laddering in VSMC-E1A; type: cell-based, rat; details: 1 mM ouabain, serum deprivation
Procedure: as §1
3′-end DNA labeling. VSMC-E1A seeded in 75 cm^2 flasks were treated with 4 ml of lysis buffer containing 50 mM tris-HCI, 20 mM EDTA (pH 8.0), 0.5% SDS and 500 μg/ml proteinase K. The lysate was incubated at 50° C. for 3 hours, mixed with 250 μg/ml RNAase A and incubated for 1 hour at 37° C. […] After 1 hour incubation at 37° C., the aliquots were loaded on 1.5% agarose gel, run at 100 V for 3 to 4 hours, transferred onto a nylon membrane (Hybond N+, Amersham), and analyzed with a PhosphorImager. […]

[5] = tested on: VSMC; experiment: Protein synthesis in VSMC; details: 8 hours incubation with ouabain, data not shown

C[C@@H]1O[C@@H](O[C@H]2C[C@@H](O)[C@]3(CO)[C@H]4[C@H](O)C[C@]5(C)[C@@H](C6=CC(=O)OC6)CC[C@]5(O)[C@@H]4CC[C@]3(O)C2)[C@H](O)[C@H](O)[C@H]1O [Ouabain, 1β,3β,5,11α,14,19-hexahydroxycard 20 [22]-enolide 3-[6-deoxy-α-L-mannopyrano-sidel]]
LDH release ([1]; VSMC, 8 hours incubation with ouabain): did not observe any significant effect
heat stress-induced LDH-release ([1]; VSMC, heat stress 46° C., 30 min, ouabain): did not observe modulation
LDH release (%) ([1]; serum-deprived VSMC, 3 hours preincubation 1 mM ouabain, additional 8 hr): 1.8 ± 0.4%
LDH release (%) ([1]; serum-supplied VSMC, 3 hours preincubation 1 mM ouabain, additional 8 hr): 1.2 ± 0.3%
LDH release (%) ([1]; serum-supplied, heat-treated (46° C., 30 min) VSMC, 1 mM ouabain, 8 hr): 11.0 ± 2.8# %
DNA synthesis, serum-induced [^3H]-thymidine incorporation ([2]; 5 hours preincubation with ouabain): insensitive
decrease of DNA synthesis, serum-induced [^3H]-thymidine incorporation ([2]; after 48 hours of Na+,K+ pump inhibition with ouabain): ~60%
number of apoptotic cells [3]: sharply decreased the number of apoptotic cells
DNA laddering and low molecular weight 3'-end labeled DNA fragments [4]: prevented DNA laddering
protein synthesis [5]: did not observe any significant effect
